Laboratory results as given in ChEMBL document CHEMBL1201862, “PubChem BioAssay data set” (2004).
Activity calls are given as the source filed them.

Columns and labels:
Staphylococcus aureus = assay: Inhibitors of Bacterial Quorum Sensing Structure Activity Relationship (SAR) Analysis: Dose Response Assay. [Related pubchem assays: 700, 527 ]; format: functional, organism-based
[1] = target: Sphingosine 1-phosphate receptor 2 (Homo sapiens, UniProt O95136); assay: Dose Response Cell Based Assay for Agonists of the S1P2 Receptor of Purchased Analogues. [Related pubchem assays: 729, 843, 854, 736 ]; format: functional
Sequence of Sphingosine 1-phosphate receptor 2 (O95136 whole entry): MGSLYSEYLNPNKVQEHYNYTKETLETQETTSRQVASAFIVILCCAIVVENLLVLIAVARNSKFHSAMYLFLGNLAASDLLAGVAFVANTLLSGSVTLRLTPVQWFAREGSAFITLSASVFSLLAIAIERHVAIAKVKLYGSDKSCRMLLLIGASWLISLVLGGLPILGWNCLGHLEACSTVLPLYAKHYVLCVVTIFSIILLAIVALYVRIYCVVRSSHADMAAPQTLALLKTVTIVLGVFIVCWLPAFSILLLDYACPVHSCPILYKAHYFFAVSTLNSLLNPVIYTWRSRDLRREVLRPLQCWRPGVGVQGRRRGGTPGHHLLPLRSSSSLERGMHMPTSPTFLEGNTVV

[2] = target: Neuropeptide Y receptor type 2 (Homo sapiens, UniProt P49146); format: functional, cell-based;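 also: HEK293 cells expressing the receptor and a CNG channel; stimulus was NPY near EC95 followed by isoproterenol to raise cAMP; antagonist potency measured as restoring cAMP signal that NPY suppresses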
Sequence of Neuropeptide Y receptor type 2 (P49146 whole entry): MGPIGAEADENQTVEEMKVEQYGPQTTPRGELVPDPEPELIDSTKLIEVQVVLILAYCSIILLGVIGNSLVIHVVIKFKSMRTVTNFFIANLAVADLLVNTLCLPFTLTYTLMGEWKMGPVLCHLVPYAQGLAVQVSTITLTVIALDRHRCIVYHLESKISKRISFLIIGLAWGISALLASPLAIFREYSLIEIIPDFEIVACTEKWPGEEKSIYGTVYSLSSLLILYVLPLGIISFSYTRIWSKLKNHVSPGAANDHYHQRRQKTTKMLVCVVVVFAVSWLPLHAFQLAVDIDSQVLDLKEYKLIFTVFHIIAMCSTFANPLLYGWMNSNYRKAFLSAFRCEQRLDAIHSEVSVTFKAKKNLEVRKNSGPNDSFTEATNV

[3] = target: Neuropeptide Y receptor type 1 (Homo sapiens, UniProt P25929); format: functional;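 also: HEK293 cells with a CNG channel challenged with NPY then isoproterenol; potency as antagonist that reverses NPY suppression of cAMP signal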
Sequence of Neuropeptide Y receptor type 1 (P25929 whole entry): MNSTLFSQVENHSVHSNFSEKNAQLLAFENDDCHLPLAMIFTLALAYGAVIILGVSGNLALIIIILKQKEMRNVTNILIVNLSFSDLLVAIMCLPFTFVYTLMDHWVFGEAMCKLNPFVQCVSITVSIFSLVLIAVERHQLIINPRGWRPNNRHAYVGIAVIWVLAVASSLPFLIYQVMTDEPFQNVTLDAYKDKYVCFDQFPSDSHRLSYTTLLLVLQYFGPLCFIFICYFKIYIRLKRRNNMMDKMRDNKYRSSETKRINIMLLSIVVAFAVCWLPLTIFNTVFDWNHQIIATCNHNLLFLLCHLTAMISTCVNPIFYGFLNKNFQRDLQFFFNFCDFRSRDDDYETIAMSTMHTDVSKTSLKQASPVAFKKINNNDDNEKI

[4] = target: T1, Heat shock 70 kDa protein 1A (Homo sapiens, UniProt P0DMV8); assay: small-molecule inhibition of Hsp70 – biochemical, TR-FRET (AID 786)
T1 sequence (P0DMV8 whole entry): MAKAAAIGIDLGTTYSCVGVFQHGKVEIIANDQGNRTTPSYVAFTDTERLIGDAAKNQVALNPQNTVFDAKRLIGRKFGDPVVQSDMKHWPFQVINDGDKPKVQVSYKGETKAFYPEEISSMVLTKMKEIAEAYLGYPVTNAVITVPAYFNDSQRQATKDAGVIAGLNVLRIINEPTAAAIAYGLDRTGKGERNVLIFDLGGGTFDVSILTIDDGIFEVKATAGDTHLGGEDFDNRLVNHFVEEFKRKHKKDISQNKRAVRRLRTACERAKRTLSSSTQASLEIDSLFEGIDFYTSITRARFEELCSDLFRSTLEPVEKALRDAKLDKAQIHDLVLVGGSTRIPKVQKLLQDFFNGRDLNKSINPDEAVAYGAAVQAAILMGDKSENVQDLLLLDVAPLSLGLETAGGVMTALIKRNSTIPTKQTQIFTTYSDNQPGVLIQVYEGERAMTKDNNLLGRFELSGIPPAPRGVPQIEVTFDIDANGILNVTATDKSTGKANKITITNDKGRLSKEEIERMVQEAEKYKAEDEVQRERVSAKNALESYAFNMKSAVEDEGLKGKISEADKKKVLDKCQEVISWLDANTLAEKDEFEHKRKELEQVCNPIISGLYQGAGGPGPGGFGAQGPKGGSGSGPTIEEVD

[5] = target: T2, Replicative DNA helicase DnaB (Mycobacterium tuberculosis, UniProt P9WMR3); assay: DnaB intein splicing inhibitors, dose response, biochemical, cell-free fluorescence (AID 449749); format: functional
T2 sequence (P9WMR3 whole entry): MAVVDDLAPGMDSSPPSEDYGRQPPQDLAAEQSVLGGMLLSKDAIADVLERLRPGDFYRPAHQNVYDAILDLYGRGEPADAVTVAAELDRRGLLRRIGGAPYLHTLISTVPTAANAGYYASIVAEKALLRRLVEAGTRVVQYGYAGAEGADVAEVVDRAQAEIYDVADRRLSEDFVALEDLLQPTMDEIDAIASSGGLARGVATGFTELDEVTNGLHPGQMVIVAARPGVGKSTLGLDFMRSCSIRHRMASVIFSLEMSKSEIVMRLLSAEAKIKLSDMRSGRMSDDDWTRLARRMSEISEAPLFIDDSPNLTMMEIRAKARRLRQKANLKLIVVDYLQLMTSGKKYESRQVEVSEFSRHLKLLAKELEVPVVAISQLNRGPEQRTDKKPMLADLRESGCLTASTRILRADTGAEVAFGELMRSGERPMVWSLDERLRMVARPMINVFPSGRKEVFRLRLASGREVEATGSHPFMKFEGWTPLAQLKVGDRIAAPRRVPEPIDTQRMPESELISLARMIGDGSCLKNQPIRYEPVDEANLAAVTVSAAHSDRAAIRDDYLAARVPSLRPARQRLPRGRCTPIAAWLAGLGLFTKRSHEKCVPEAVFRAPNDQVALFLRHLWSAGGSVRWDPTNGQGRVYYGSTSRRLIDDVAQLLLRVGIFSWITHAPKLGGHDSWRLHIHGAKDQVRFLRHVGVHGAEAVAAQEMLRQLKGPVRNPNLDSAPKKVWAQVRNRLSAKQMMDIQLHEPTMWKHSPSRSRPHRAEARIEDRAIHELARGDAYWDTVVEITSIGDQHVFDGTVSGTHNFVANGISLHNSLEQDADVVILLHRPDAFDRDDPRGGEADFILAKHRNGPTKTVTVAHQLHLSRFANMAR

[6] = target: T1, Heat shock 70 kDa protein 1A; assay: small molecules displacing fluorescent ligand from Hsp70 – biochemical, fluorescence polarization, primary screen (AID 583)
Protein RecA = target: T3, Protein RecA (Mycobacterium tuberculosis, UniProt P9WHJ3); assay: Fluorescence Cell-Free Homogeneous Dose Retest to Identify Inhibitors of RecA-Intein Splicing Activity. [Related pubchem assays (depositor defined):AID2097, AID2223, AID489010, AID492950]; format: functional
T3 sequence (P9WHJ3 whole entry): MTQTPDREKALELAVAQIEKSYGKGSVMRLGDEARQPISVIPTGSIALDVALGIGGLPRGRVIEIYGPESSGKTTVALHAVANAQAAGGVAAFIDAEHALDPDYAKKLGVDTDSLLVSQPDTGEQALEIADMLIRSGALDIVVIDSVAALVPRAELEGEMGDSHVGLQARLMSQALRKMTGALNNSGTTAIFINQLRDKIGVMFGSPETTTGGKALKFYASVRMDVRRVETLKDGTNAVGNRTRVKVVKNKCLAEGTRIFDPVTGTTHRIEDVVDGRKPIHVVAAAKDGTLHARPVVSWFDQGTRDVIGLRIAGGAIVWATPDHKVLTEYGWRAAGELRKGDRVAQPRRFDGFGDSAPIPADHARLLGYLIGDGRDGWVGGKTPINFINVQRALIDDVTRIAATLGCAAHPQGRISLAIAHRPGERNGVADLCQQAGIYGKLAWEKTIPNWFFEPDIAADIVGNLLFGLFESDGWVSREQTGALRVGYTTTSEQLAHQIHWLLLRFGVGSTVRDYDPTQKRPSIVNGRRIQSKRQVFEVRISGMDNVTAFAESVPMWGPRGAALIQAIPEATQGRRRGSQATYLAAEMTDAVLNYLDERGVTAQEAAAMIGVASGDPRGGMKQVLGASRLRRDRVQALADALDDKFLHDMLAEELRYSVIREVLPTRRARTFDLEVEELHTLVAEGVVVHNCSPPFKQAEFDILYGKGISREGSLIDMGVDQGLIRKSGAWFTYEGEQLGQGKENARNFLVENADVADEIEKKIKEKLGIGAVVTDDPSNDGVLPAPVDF

[7] = target: Epstein-Barr nuclear antigen 1 (Epstein-Barr virus (strain B95-8) (HHV-4) (Human herpesvirus 4), UniProt P03211); assay: inhibition of EBV nuclear antigen 1 DNA binding – biochemical, fluorescence polarization, 1536-well, dose response (AID 2381); set-up: species or system human gammaherpesvirus 4;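 also: fluorescence polarization of a Cy5 DNA probe bound by EBNA-1 protein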
Sequence of Epstein-Barr nuclear antigen 1 (P03211 whole entry): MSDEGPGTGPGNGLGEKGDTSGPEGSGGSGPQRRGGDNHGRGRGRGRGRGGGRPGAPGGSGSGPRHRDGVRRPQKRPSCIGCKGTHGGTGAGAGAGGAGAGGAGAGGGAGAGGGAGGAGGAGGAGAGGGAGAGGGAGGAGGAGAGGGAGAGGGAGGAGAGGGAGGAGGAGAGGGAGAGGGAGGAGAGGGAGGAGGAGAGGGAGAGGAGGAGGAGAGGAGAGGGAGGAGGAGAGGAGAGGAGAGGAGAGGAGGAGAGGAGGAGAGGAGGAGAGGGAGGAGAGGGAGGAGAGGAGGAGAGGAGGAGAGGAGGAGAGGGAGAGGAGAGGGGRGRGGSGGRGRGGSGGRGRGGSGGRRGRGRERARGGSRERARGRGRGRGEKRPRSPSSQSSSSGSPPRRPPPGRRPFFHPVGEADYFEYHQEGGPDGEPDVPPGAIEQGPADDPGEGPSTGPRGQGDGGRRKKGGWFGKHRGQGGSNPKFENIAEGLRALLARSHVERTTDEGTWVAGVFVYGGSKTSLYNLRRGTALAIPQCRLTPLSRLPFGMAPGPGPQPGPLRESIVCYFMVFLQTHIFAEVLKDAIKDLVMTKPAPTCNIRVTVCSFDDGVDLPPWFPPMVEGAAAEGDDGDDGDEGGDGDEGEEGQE

[8] = target: Lytic switch protein BZLF1 (Epstein-Barr virus (strain B95-8) (HHV-4) (Human herpesvirus 4), UniProt P03206); assay: inhibition of BZLF1 ZTA DNA binding – biochemical, fluorescence polarization, Epstein-Barr virus, 1536-well, counter-screen for EBNA-1 inhibitor project, dose response (AID 2377); set-up: species or system human gammaherpesvirus 4;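 also: fluorescence polarization of Cy5-labelled ZRE DNA probe bound by purified Zta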
Sequence of Lytic switch protein BZLF1 (P03206 whole entry): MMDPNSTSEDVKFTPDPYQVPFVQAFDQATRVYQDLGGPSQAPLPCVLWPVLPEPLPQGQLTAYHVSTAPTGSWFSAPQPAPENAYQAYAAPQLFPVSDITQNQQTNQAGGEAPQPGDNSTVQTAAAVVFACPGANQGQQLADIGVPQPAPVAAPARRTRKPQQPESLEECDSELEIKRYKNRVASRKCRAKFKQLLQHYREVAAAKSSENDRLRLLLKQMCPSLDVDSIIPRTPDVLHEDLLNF

BJ [9] = assay: BJ-TERT fibroblast viability loss – cell-based, RAS-independent, luminescence, dose response (AID 1933); format: functional; conditions: Homo sapiens
BJ [10] = assay: cells; format: functional, cell-based; conditions: Homo sapiens
H4 = assay: Luminescence Cell-Based Dose Response HTS to Identify Activators of 5'UTR Stem-Loop Driven Prion Protein mRNA Translation in H4 Neuroglioblastoma Cells. [Related pubchem assays: 1829 (Project Summary), 1814 (Primary HTS)]; format: functional; conditions: Homo sapiens
[11] = HEK-293T viability loss after treatment – luminescence, T-cell screen hits, cytotoxicity control for TCR NF-kB inhibitor project, dose response (AID 489026); format: functional, cell-based;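 also: cells exposed to compound about 14 hours before the viability readout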
[12] = Luminescence Cell-Based Dose Confirmation HTS to Identify Activators of 5'UTR Stem-Loop Driven Alpha-Synuclein mRNA Translation in H4 Neuroglioblastoma Cells. [Related pubchem assays: 1829 (Project Summary), 1814 (Primary HTS)]; format: functional
[13] = target: Heat shock protein HSP 90-alpha (Homo sapiens, UniProt P07900); format: functional, organism-based
BJ [14] = assay: growth inhibition of engineered Ras-driven BJ cells – cell-based, alamar blue fluorescence, cherrypicked samples, dose response (AID 2631); format: functional; conditions: Homo sapiens;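 also: confirmatory dose-response assay in RAS-dependent BJ fibroblasts engineered with TERT, LT and ST, with cytotoxicity read by fluorescence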
[15] = Luminescence Cell-Based Dose Response HTS to Identify Activators of Luciferase Translation or Activity in H4 […] Cells. [Related pubchem assays: 1829 (Project Summary), 1814 (Primary HTS)]; format: functional
HeLa = assay: Cytotoxicity counterscreen assay for transcriptional activators of heat shock protein 70 (Hsp70). [Related pubchem assays: 1203, 1252 ]; format: functional; conditions: Homo sapiens;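 also: cells exposed to compound for 16 hours before readout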
[16] = DRD fibroblast viability loss – cell-based, non-viral oncogenic, luminescence, dose response (AID 1934); format: functional; conditions: Homo sapiens
INS1 = assay: INS-1E survival protection against cytokine death – cell-based, luminescence, retest, dose response (AID 449756); format: functional; conditions: Rattus norvegicus;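 also: cell death triggered by IL-1 beta plus TNF-alpha plus IFN-gamma mixture; protective hits raise ATP signal compared with cytokine alone wells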
BJ [17] = assay: BJ-TERT-LT-ST fibroblast viability loss – cell-based, RAS-independent, luminescence, dose response (AID 1935); format: functional; conditions: Homo sapiens;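 also: BJ fibroblasts immortalized with TERT plus LT and ST oncogenes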

Structure (SMILES): CC1CCN(C(C(=O)Nc2ccc3c(c2)OCO3)c2ccccc2)CC1 (configuration not stated)
- IC50 (Staphylococcus aureus): 0.976 µM (active)

Structure (SMILES): Cc1cc(C(=O)CN2C(=O)NC3(CCc4ccccc43)C2=O)c(C)n1Cc1ccccc1 (configuration not stated)
- EC50 [1]: > 30 µM (not active)

Structure (SMILES): CCc1cccc(CC)c1NC(=O)COC(=O)c1ccccc1-c1nc2ccccc2s1
- IC50 [2]: 17.3 µM (not active)
- IC50 [3]: 5.77 µM (active)

Structure (SMILES): CC(=O)N1CCC2(CC1)C(C#N)=C(N)Oc1[nH]nc(C)c12
- IC50 [4]: > 100 µM (not active)
- AC50 [5]: 8.21 µM (active)
- IC50 [6]: > 100 µM (not active)
- EC50 (Protein RecA): 1.36 µM (active)

Structure (SMILES): Nc1c(C(=O)Nc2ccc3c(c2)OCCO3)nnn1Cc1cccc(F)c1
- IC50 [7]: 13.7 µM (not active)
- IC50 [8]: > 111 µM (not active)

Structure (SMILES): CC1C/C(=C/c2ccncc2)C(=O)/C(=C/c2ccncc2)C1 (configuration not stated)
- EC50 (BJ [9]): 1.1 µM (inconclusive)
- EC50 (BJ [10]): 1.01 µM (inconclusive)
- EC50 (H4): > 120 µM (not active)
- IC50 [11]: 54 µM (inactive)
- EC50 [12]: > 120 µM (not active)
- AC50 [13]: 4.23 µM (active)
- EC50 (BJ [14]): 0.291 µM (active)
- EC50 [15]: > 60 µM (not active)
- CC50 (HeLa): > 1.22 µM (not active)
- EC50 [16]: 2.23 µM (inconclusive)
- AC50 (INS1): 3.66 µM (active)
- EC50 (BJ [17]): 2.3 µM (inconclusive)
